Activity calls are given as the source filed them. The calls are words filed in the database; no cut-off is given here.
Legend:
[1] = Intrinsic clearance in human liver microsomes preincubated for 5 mins followed by NADPH addition and measured after 5 to 60 mins by LC-MS/MS analysis; type: ADME, Microsome; settings: time 5-60 min, read-out: CLH
[2] = Hepatic clearance in human liver microsomes preincubated for 5 mins followed by NADPH addition and measured after 5 to 60 mins by LC-MS/MS analysis; type: ADME, Microsome; settings: time 5-60 min
[3] = Hepatic clearance in mouse liver microsomes preincubated for 5 mins followed by NADPH addition and measured after 5 to 60 mins by LC-MS/MS analysis; type: ADME, Microsome; settings: time 5-60 min
[4] = Intrinsic clearance in mouse liver microsomes preincubated for 5 mins followed by NADPH addition and measured after 5 to 60 mins by LC-MS/MS analysis; type: ADME, Microsome; settings: time 5-60 min, read-out: CLH
[5] = Half life in human liver microsomes preincubated for 5 mins followed by NADPH addition and measured after 5 to 60 mins by LC-MS/MS analysis; type: ADME, Microsome
[6] = Half life in mouse liver microsomes preincubated for 5 mins followed by NADPH addition and measured after 5 to 60 mins by LC-MS/MS analysis; type: ADME, Microsome; settings: time 5-60 min
L02 = assay: Cytotoxicity against human L-02 cells incubated for 24 hrs by MTT assay; type: cell-based; settings: L02, 24 h
[7] = target: NACHT, LRR and PYD domains-containing protein 3 (Mus musculus, UniProt Q8R4B8); assay: Inhibition of NLRP3 inflammasome activation in LPS-stimulated mouse bone marrow-derived macrophages assessed as reduction in IL-1beta secretion preincubated for 30 mins followed by nigericin addition and measured after 30 mins by ELISA; type: tissue-based, Macrophage
Chain of NACHT, LRR and PYD domains-containing protein 3 (Q8R4B8 whole entry, the tested form may be a part): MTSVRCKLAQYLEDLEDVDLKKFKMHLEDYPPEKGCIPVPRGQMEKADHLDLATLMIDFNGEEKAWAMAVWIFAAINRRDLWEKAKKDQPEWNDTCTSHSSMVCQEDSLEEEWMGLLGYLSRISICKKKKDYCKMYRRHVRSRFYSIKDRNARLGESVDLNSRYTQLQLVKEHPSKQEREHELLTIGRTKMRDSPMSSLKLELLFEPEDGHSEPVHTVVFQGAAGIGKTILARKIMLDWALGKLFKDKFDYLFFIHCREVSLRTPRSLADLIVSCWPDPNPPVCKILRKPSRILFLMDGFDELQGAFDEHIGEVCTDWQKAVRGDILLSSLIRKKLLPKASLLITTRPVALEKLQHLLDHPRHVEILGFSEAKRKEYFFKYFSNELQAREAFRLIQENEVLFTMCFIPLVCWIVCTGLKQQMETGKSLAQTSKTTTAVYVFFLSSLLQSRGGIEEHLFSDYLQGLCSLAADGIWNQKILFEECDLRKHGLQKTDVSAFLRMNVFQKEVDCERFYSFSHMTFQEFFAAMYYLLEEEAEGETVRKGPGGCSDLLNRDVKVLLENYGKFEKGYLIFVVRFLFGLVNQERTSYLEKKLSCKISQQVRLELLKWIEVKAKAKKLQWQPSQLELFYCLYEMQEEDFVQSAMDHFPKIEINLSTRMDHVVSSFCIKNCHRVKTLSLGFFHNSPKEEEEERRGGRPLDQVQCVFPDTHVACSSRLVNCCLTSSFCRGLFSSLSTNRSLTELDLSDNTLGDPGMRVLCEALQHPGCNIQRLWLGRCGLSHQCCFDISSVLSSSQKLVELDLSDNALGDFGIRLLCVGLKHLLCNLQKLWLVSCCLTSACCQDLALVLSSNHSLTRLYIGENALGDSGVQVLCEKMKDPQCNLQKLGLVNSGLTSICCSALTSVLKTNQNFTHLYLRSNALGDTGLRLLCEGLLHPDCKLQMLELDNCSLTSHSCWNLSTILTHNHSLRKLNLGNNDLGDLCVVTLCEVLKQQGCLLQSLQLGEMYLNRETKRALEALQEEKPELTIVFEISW

[8] = target: NACHT, LRR and PYD domains-containing protein 3 (Mus musculus) (UniProt Q8R4B8); assay: (§1) Inhibition of NLRP3 inflammasome activation in LPS-stimulated mouse J774A.1 cells assessed as inhibition of cell pyrolysis at 20 uM incubated for 1 hr followed by ATP addition and measured after 30 mins by Hoechst 33342/propidium iodide staining based high content screening method relative to control; settings: J774.A1, time 1.5 hrs
Chain of NACHT, LRR and PYD domains-containing protein 3 (Mus musculus) (Q8R4B8 whole entry, the tested form may be a part): as above

Macrophage = assay: Inhibition of NFkappaB activation in LPS-stimulated mouse bone marrow-derived macrophages assessed as reduction in TNFalpha secretion preincubated for 30 mins followed by nigericin addition and measured after 30 mins by ELISA; type: tissue-based; settings: time 60.0 min
[9] = target: NACHT, LRR and PYD domains-containing protein 3 (Mus musculus) (UniProt Q8R4B8); assay: as §1, with “10” for “20”; settings: J774.A1, time 1.5 hrs
Mus musculus [10] = assay: In vivo inhibition of NLRP3 inflammasome activation in C57BL/6 mouse assessed as reduction in MPO activity at 10 mg/kg, ig administered for 7 days by ELISA; type: functional, organism-based; settings: time 7.0 day
Mus musculus [11] = assay: Protection against DSS-induced acute ulcerative colitis in C57BL/6 mouse assessed as reduction in adhesion of colon at 20 mg/kg, ig administered for 7 days; type: functional, organism-based; settings: time 7.0 day
Mus musculus [12] = assay: In vivo inhibition of NLRP3 inflammasome activation in C57BL/6 mouse assessed as reduction in MPO activity at 20 mg/kg, ig administered for 7 days by ELISA; type: functional, organism-based; settings: time 7.0 day
[13] = Toxicity in C57BL/6 mouse assessed as reduction in survival rate at 20 mg/kg, ig administered for 28 days; type: organism-based; settings: in vivo, po, 672 h, time 28 day
[14] = Toxicity in C57BL/6 mouse assessed as effect on activity at 10 to 20 mg/kg, ig administered for 28 days; type: organism-based; settings: in vivo, po, 672 h, dose 10-20 mg/kg, time 28 day
Mus musculus [15] = assay: Anti-inflammatory activity in C57BL/6 mouse DSS-induced acute ulcerative colitis assessed as reduction in disease index at 10 to 20 mg/kg, ig administered for 7 days; type: functional, organism-based; settings: dose 10-20 mg/kg, time 7.0 day
[16] = Toxicity in C57BL/6 mouse assessed as effect on fur at 10 to 20 mg/kg, ig administered for 28 days; type: organism-based; settings: in vivo, po, 672 h, dose 10-20 mg/kg, time 28 day
[17] = Toxicity in C57BL/6 mouse assessed as effect on diet at 10 to 20 mg/kg, ig administered for 28 days; type: organism-based; settings: in vivo, po, 672 h, dose 10-20 mg/kg, time 28 day
[18] = Toxicity in C57BL/6 mouse assessed as effect on spirit at 10 to 20 mg/kg, ig administered for 28 days; type: organism-based; settings: in vivo, po, 672 h, dose 10-20 mg/kg, time 28 day

| Compound | IC50 (L02) | IC50 [7] | inhibition [8] | inhibition [9] | other results |
| --- | --- | --- | --- | --- | --- |
| COc1ccc2c(c1)[C@]13CCCC[C@@H]1[C@H](C2)N(C)CC3 [DEXTROMETHORPHAN] | – | – | – | – | microsomal CLint [1]: 44.5 µL/min/mg; CLhep predicted [2]: 14.8 mL/min/kg; CLhep predicted [3]: 70.6 mL/min/kg; microsomal CLint [4]: 83.3 µL/min/mg; half-life [5]: 31.2 min; half-life [6]: 16.6 min |
| COc1cc(/C=C/c2ccc(O)cc2)cc(OC)c1 [PTEROSTILBENE] | > 100 µM | > 10 µM | 21.2% | – | inhibition (Macrophage): Active |
| COc1cc(/C=C/c2ccc(O)cc2)c(/C=C/[N+](=O)[O-])c(OC)c1 | > 100 µM | > 10 µM | 31.5% | 13.3% | – |
| COc1cc(/C=C/c2ccc(OCC(=O)NCc3ccccc3)cc2)c(-c2cnn[nH]2)c(OC)c1 | > 100 µM | > 10 µM | 31.6% | 19.4% | – |
| CCCCNC(=O)COc1ccc(/C=C/c2cc(OC)cc(OC)c2/C=C/[N+](=O)[O-])cc1 | > 100 µM | 7.18 µM | 70.1% | 40.9% | – |
| COc1cc(/C=C/c2ccc(OCC(=O)NCc3ccc(Br)cc3)cc2)c(/C=C/[N+](=O)[O-])c(OC)c1 | > 100 µM | 9.68 µM | 34.9% | 24% | – |
| C=C1C(=O)[C@]23[C@H](O)[C@H]1CC[C@H]2[C@@]12CO[C@]3(O)[C@@H](O)[C@@H]1C(C)(C)CC[C@@H]2O [ORIDONIN] | 38.2 µM | 0.81 µM | 83.3% | 69.5% | – |
| COc1cc(/C=C/c2ccc(OCc3ccc(C(F)(F)F)cc3)cc2)cc(OC)c1 | > 100 µM | > 10 µM | 8.51% | 6.32% | – |
| COc1ccc(CNC(=O)COc2ccc(/C=C/c3cc(OC)cc(OC)c3/C=C/[N+](=O)[O-])cc2)cc1 | > 100 µM | – | 23.1% | 11.8% | – |
| COCCOc1ccc(/C=C/c2cc(OC)cc(OC)c2/C=C/[N+](=O)[O-])cc1 | > 100 µM | – | 40.2% | 34.6% | – |
| COc1cc(/C=C/c2ccc(NC(=O)C3CCCCC3)cc2)c(/C=C/[N+](=O)[O-])c(OC)c1 | > 100 µM | > 10 µM | – | 28.7% | – |
| COCCOc1ccc(/C=C/c2cc(OC)cc(OC)c2-c2cnn[nH]2)cc1 | 94.5 µM | – | 26.9% | 11.3% | – |
| O=[N+]([O-])/C=C/c1ccc2c(c1)OCO2 | 41.1 µM | 2.31 µM | 89.2% | 70.6% | – |
| COc1cc(/C=C/c2ccc(OCC(=O)Nc3ccc(F)cc3)cc2)c(/C=C/[N+](=O)[O-])c(OC)c1 | > 100 µM | – | 49.6% | 40.7% | – |
| COc1cc(/C=C/c2ccc(N)cc2)c(/C=C/[N+](=O)[O-])c(OC)c1 | 85.1 µM | 1.37 µM | 75.3% | 54.7% | inhibition (Mus musculus [10]): Active; Activity (Mus musculus [11]): Active; inhibition (Mus musculus [12]): inactive; Activity [13]: Toxic; Activity [14]: Toxic; Activity (Mus musculus [15]): Active; Activity [16]: Toxic; Activity [17]: Toxic; Activity [18]: Toxic |
| COc1cc(/C=C/c2ccc(OCC(=O)NCc3ccccc3)cc2)cc(OC)c1 | > 100 µM | – | 15.4% | 9.65% | – |
| C=CCCCOc1ccc(/C=C/c2cc(OC)cc(OC)c2)cc1 | > 100 µM | – | 12.1% | 11.1% | – |
| COc1cc(/C=C/c2ccc(OCC(=O)NC3CCN(C(=O)OC(C)(C)C)CC3)cc2)c(/C=C/[N+](=O)[O-])c(OC)c1 | > 100 µM | – | 42.3% | 33% | – |
| COc1cc(/C=C/c2ccc(OCC(=O)Nc3ccc(Br)cc3)cc2)c(/C=C/[N+](=O)[O-])c(OC)c1 | > 100 µM | – | 26.2% | 9.56% | – |
| COc1cc(/C=C/c2ccc(OCC(=O)NC3CCCCC3)cc2)c(/C=C/[N+](=O)[O-])c(OC)c1 | > 100 µM | – | 41.8% | 25.6% | – |
| COc1cc(/C=C/c2ccc(NC(=O)CCCl)cc2)c(/C=C/[N+](=O)[O-])c(OC)c1 | > 100 µM | 0.76 µM | – | 70.5% | – |
| COc1cc(/C=C/c2ccc(OCC(=O)NCc3ccncc3)cc2)c(/C=C/[N+](=O)[O-])c(OC)c1 | 63 µM | 7.68 µM | 65.4% | 45.3% | – |
| COCCOc1ccc(/C=C/c2cc(OC)cc(OC)c2)cc1 | > 100 µM | – | 32.3% | 25.7% | – |
| COc1cc(/C=C/c2ccc(OCC(=O)NCc3ccc(C)cc3)cc2)c(/C=C/[N+](=O)[O-])c(OC)c1 | > 100 µM | – | 31.9% | 24.1% | – |
| COCCCOc1ccc(/C=C/c2cc(OC)cc(OC)c2/C=C/[N+](=O)[O-])cc1 | > 100 µM | – | 53.7% | 43.2% | – |
| COc1cc(/C=C/c2ccc(NC(=O)C3CCC3)cc2)c(/C=C/[N+](=O)[O-])c(OC)c1 | > 100 µM | 1.41 µM | – | 55.6% | – |
| COc1cc(/C=C/c2ccc(OCC(=O)Nc3ccc(Cl)cc3)cc2)c(/C=C/[N+](=O)[O-])c(OC)c1 | > 100 µM | – | 40.1% | 22.1% | – |

Reference: ChEMBL document CHEMBL4831528, “Discovery of Novel Pterostilbene-Based Derivatives as Potent and Orally Active NLRP3 Inflammasome Inhibitors with Inflammatory Activity for Colitis” (J Med Chem, 2021)
